Results on 23 compounds are retold here after PMC4917279 (Journal of Medicinal Chemistry, 2016).

Series [1] deals with T1, SMYD2 (Homo sapiens, UniProt Q9NRG4). Briefly: SMYD2 scintillation proximity assay (SPA). Format: biochemical. Particulars: for BEI (SMYD2): Binding efficiency index: pIC50/MW × 1000. Also on record: The SMYD2 full-length enzyme with an N-terminal 6xHis tag was expressed in Escherichia coli; made in house; host or cells: Escherichia coli.
Series [2] is described as follows: Metabolic stability in rat hepatocytes. Format: in vitro ADME. Particulars: read-out: CL (CLblood) (converted). The procedure: Liver cells were distributed in Williams’ medium E containing 5% fetal calf serum (FCS) to glass vials at a density of 1.0 × 10^6 vital cells/mL. The test compound was added to a final concentration of 1 μM. During incubation, the hepatocyte suspensions were continuously shaken and aliquots were taken at 2, 8, 16, 30, 45, and 90 min, to which an equal volume of cold MeOH was immediately added. Samples were frozen at −20 °C overnight, then centrifuged (15 min, 3000 rpm), and the supernatant was analyzed with an Agilent 1200 HPLC system with LC-MS/MS detection. The half-life of a test compound was determined from the concentration–time plot. The intrinsic clearances were calculated from the half-life, together with additional parameters (liver blood flow, quantity of liver cells in vivo and in vitro).

A short description of series [3]: Caco2 drug permeability assay. Format: in vitro ADME. Particulars: human, Caco-2, pH 7.2. The procedure:
Caco-2 cells (purchased from DSMZ Braunschweig, Germany) were seeded at a density of 4.5 × 10^4 cell per well on 24-well insert plates, 0.4 μm pore size, and grown for 15 days in DMEM medium supplemented with 10% fetal bovine serum, 1% GlutaMAX (100×, GIBCO), 100 μg/mL penicillin, 100 μg/mL streptomycin (GIBCO), and 1% nonessential amino acids (100×). Cells were maintained at 37 °C in a humified 5% CO2 atmosphere. Medium was changed every second to third day. Before running the permeation assay, the culture medium was replaced by an FCS-free Hepes-carbonate transport buffer (pH 7.2). For assessment of monolayer integrity, the transepithelial electrical resistance (TEER) was measured. Test compounds were dissolved in DMSO and added either to the apical or basolateral compartment in a final concentration of 2 μM. Before and after incubation at 37 °C, samples were taken from both compartments. Analysis of compound content was performed following precipitation with methanol and LC/MS/MS analysis. Permeability (Papp) was calculated in the apical to basolateral (A → B) and basolateral to apical (B → A) directions. The apparent permeability was calculated using following equation: [drawing 3] where Vr = volume of medium in the receiver chamber, P0 = measured peak area of the test drug in the donor chamber at t = 0, S = surface area of the monolayer, P2 = measured peak area of the test drug in the acceptor chamber after incubation for 2 h, and t = incubation time. The efflux ratio basolateral (B) to apical (A) was calculated by dividing Papp (B–A) by Papp (A–B). In addition, the compound recovery was calculated. Reference compounds were analyzed in parallel as assay controls. All samples were analyzed by LC/MS/MS.

Series [4] can be described thus: Integrity of the pyrazoline stereocenter (racemization). Format: physicochemical. Particulars: aqueous solution at pH 7, mouse and human plasma at 37 °C. Here is the method: Compounds 4, 28, and 30–34 were separated into their enantiomers by preparative chiral HPLC or chiral supercritical fluid chromatography. For compounds 6 and 4, the integrity of the pyrazoline stereocenter was tested. The compounds were stable to racemization in aqueous solution at pH 7, as well as in mouse and human plasma at 37 °C, for at least 48 h. However, clean racemization was obtained under basic conditions and microwave irradiation (DBU, THF, 90 °C).

Series [5] has as its target T1, SMYD2. The experiment in a line: Isothermal titration calorimetry (ITC). Format: binding. The arrangement: The SMYD2 full-length enzyme with an N-terminal 6xHis tag was expressed in Escherichia coli; made in house; host or cells: Escherichia coli. Here is the method:
Isothermal titration calorimetry (ITC) measurements were carried out using a MicroCal iTC200 system. In the experiments, compound (400 μM) was titrated into SMYD2 protein (67 μM) dissolved in 25 mM Tris pH 8.5, 50 mM NaCl, 0.0022% Pluronic F-127, and 2% DMSO at 25 °C. After an initial injection of 0.2 μL, which was not considered for data fitting, 10 injections of 4 μL each in 150 s intervals were performed. The stirring speed of the protein in the cell was 500 rpm. The protein concentration was determined from UV absorbance measurements at 280 nm. Data were evaluated using ORIGIN software, as supplied with the instrument.
(Isothermal titration calorimetry measures the heat released or taken up as one component is titrated into another.)

For series [6], the system named is KYSE-150, U2OS, and A2780 cell lines. The experiment in a line: Caspase 3/7 activation assay. Format: cell-based. Particulars: 2 days pretreatment, then doxorubicin 24 h; KYSE-150, U2OS, A2780. The procedure:
Effects on apoptosis induction were measured with the Caspase-Glo 3/7 Assay System (Promega).

T1 sequence (Q9NRG4 whole entry): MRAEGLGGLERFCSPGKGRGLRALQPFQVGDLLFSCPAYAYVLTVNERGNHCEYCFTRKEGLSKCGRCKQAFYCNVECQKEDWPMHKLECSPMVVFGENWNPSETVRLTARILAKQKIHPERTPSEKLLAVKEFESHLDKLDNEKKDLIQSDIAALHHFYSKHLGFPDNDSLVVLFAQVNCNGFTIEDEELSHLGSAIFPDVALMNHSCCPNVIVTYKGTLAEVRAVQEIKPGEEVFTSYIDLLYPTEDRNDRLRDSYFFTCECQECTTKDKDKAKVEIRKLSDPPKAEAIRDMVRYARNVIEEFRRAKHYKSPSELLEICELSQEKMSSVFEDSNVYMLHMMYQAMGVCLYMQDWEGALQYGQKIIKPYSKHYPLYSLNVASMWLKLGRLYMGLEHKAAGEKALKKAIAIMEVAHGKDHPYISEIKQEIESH

Consider `CCN(C(=O)CO)C1CN(/C(=N\C#N)Nc2cccc(OC(F)F)c2)N=C1c1cc(C)c(Cl)c(C)c1` (centres unmarked) [Compound 27, N-[3-(4-Chloro-3,5-dimethylphenyl)-1-{N′-cyano-N-[3-(difluoromethoxy)phenyl]-carbamimidoyl}-4,5-dihydro-1H-pyrazol-4-yl]-N-ethyl-2-hydroxyacetamide], for which the “BEI (SMYD2)” value at SMYD2 [1] worked out at 12.

For `CCN(C(=O)CO)C1CN(/C(=N\C#N)Nc2ccc(OC(F)F)cc2)N=C1c1ccc(Cl)cc1` (centres unmarked) [Compound 14], the “BEI (SMYD2)” value on SMYD2 [1] was 9.8.

As for `CCN(C(=O)CO)[C@H]1CN(/C(=N\C#N)Nc2ccc(Cl)c(OC(F)F)c2)N=C1c1ccc(Cl)c(Cl)c1` [(S)-33], the CLhep predicted at […], 1 µM in series [2] is 23.3 mL/min/kg. Besides, the Papp A→B (usually the apparent permeability from the apical to the basolateral side of a cell layer) at 2 h, 2 µM in series [3] is 1 ×10⁻⁶ cm/s.

In the case of `CCN(C(=O)CO)C1CN(/C(=N\C#N)NCCCC(F)(F)F)N=C1c1ccc(Cl)cc1` (centres unmarked) [Compound 16], the “BEI (SMYD2)” value at SMYD2 [1] worked out at 11.3.

In the case of `CCN(C(=O)CN)C1CN(/C(=N\C#N)Nc2ccc(Cl)c(Cl)c2)N=C1c1ccc(Cl)cc1` (centres unmarked) [Compound 22], the “BEI (SMYD2)” value on SMYD2 [1] was 11.3.

On to `CCN(C(=O)CO)C1CN(/C(=N\C#N)Nc2cccc(OC(F)F)c2)N=C1c1ccc(Cl)cc1` (centres unmarked) [Compound 6], for which the “Stable to racemization for” value in series [4] is reported as “at least 48 h”. Besides, on SMYD2 [5], the “-TΔS” value was -2.098 kcal/mol, the ΔG was -8.546 kcal/mol and the ΔH was -6.444 kcal/mol. The “BEI (SMYD2)” value at SMYD2 [1] was found to be 12.5.

Take `N#C/N=C(/Nc1cccc(OC(F)F)c1)N1CC(N2CNCC2=O)C(c2ccc(Cl)cc2)=N1` (centres unmarked) [Compound 24]: the “BEI (SMYD2)” value at SMYD2 [1] turned out to be 11.

In the case of `CCN(C(=O)CO)C1CN(/C(=N\C#N)Nc2cccc(OC(F)F)c2)N=C1c1ccc(Cl)c(Cl)c1` (centres unmarked) [Compound 4, N-[1-{N′-Cyano-N-[3-(difluoromethoxy)phenyl]carbamimidoyl}-3-(3,4-dichlorophenyl)-4,5-dihydro-1H-pyrazol-4-yl]-N-ethyl-2-hydroxyacetamide], the “Stable to racemization for” value in series [4] is “at least 48 h”. In addition, at SMYD2 [1], the “BEI (SMYD2)” value was determined as 13.5.

For the compound `CCN(C(=O)CO)[C@H]1CN(/C(=N\C#N)Nc2cc(F)cc(OC(F)F)c2)N=C1c1ccc(Cl)c(Cl)c1` [(S)-34], the CLhep predicted at […], 1 µM in series [2] is 5 mL/min/kg. In addition, the Papp A→B at 2 h, 2 µM in series [3] was 2.3 ×10⁻⁶ cm/s.

Regarding `CCN(C(=O)CO)C1CN(/C(=N\C#N)Nc2ccc3c(c2)OC(F)(F)O3)N=C1c1ccc(Cl)cc1` (centres unmarked) [Compound 13], the “BEI (SMYD2)” value at SMYD2 [1] came out at 11.2.

On to `CCN(C(=O)CO)C1CN(/C(=N\C#N)NCCC2CC2)N=C1c1ccc(Cl)cc1` (centres unmarked) [Compound 18], for which, at SMYD2 [1], the “BEI (SMYD2)” value is on record as 12.2.

Regarding `CCN(C(=O)CO)C1CN(/C(=N\C#N)Nc2cccc(OC(F)F)c2)N=C1c1ccccc1` (centres unmarked) [Compound 25, N-(1-{N′-Cyano-N-[3-(difluoromethoxy)phenyl]carbamimidoyl}-3-phenyl-4,5-dihydro-1H-pyrazol-4-yl)-N-ethyl-2-hydroxyacetamide], the “Caspase 3/7 activation in combination with doxorubicin” value in series [6] is reported as “not”. In addition, the “SMYD2 IC50” value at SMYD2 [1] (SPA) was “inactive”.

As for `CCN(C(=O)CO)[C@H]1CN(/C(=N\C#N)Nc2cccc(OC)c2)N=C1c1ccc(Cl)c(Cl)c1` [(S)-31], the CLhep predicted at […], 1 µM in series [2] was 53.3 mL/min/kg. The compound further came in with a Papp A→B at 2 h, 2 µM in series [3] of 6.2 ×10⁻⁶ cm/s.

`CCN(C(=O)CO)[C@H]1CN(/C(=N\C#N)Nc2cccc(OC(F)F)c2)N=C1c1ccc(Cl)c(C)c1` [(S)-28]: in series [2], the CLhep predicted at […], 1 µM was 46.7 mL/min/kg. For the same compound, the Papp A→B at 2 h, 2 µM in series [3] was determined as 3.3 ×10⁻⁶ cm/s.

Take `CCN(C(=O)CO)C1CN(/C(=N\C#N)Nc2ccc(Cl)c(Cl)c2)N=C1c1ccc(Cl)cc1` (centres unmarked) [Compound 12]: the “BEI (SMYD2)” value at SMYD2 [1] was determined as 11.1.

Consider `CCN(C(=O)CO)C1CN(/C(=N\C#N)Nc2ccc(F)c(Cl)c2)N=C1c1ccc(Cl)cc1` (centres unmarked) [Compound 5], for which the “BEI (SMYD2)” value at SMYD2 [1] is reported as 12.1.

Take `CCN(C(=O)CO)[C@H]1CN(/C(=N\C#N)Nc2cccc(OC(F)(F)F)c2)N=C1c1ccc(Cl)c(Cl)c1` [(S)-30]: in series [2], the CLhep predicted at […], 1 µM is 26.7 mL/min/kg. In addition, the Papp A→B at 2 h, 2 µM in series [3] came out at 3.2 ×10⁻⁶ cm/s.

Regarding `CCN(C(=O)CO)C1CN(/C(=N\C#N)Nc2cccc(OC(F)F)c2)N=C1c1ccc(Br)cc1` (centres unmarked) [Compound 26, N-[3-(4-Bromophenyl)-1-{N′-cyano-N-[3-(difluoromethoxy)phenyl]carbamimidoyl}-4,5-dihydro-1H-pyrazol-4-yl]-N-ethyl-2-hydroxyacetamide], the “BEI (SMYD2)” value at SMYD2 [1] came out at 11.1.

For the compound `N#C/N=C(/Nc1cccc(OC(F)F)c1)N1CC(NC(=O)CO)C(c2ccc(Cl)cc2)=N1` (centres unmarked) [Compound 19], the “BEI (SMYD2)” value on SMYD2 [1] is recorded as 10.7.

For the compound `CCN(C(=O)CO)C1CN(/C(=N\C#N)Nc2cccc(OC(F)F)c2)N=C1c1ccc(Cl)c(C)c1` (centres unmarked) [Compound 28, N-[3-(4-Chloro-3-methylphenyl)-1-{N′-cyano-N-[3-(difluoromethoxy)phenyl]carbamimidoyl}-4,5-dihydro-1H-pyrazol-4-yl]-N-ethyl-2-hydroxyacetamide], the “BEI (SMYD2)” value at SMYD2 [1] came to 14.

Consider `CCN(C(=O)CO)[C@H]1CN(/C(=N\C#N)Nc2cccc(OC(F)F)n2)N=C1c1ccc(Cl)c(Cl)c1` [(S)-32], for which, in series [2], the CLhep predicted at […], 1 µM is 30 mL/min/kg. Further, in series [3], the apical-to-basolateral permeability (Papp A→B) at 2 h, 2 µM turned out to be 3.9 ×10⁻⁶ cm/s.

Regarding `CCN(C(=O)CO)C1CN(/C(=N\C#N)Nc2cccc(OC(F)F)c2)N=C1c1ccc2c(c1)OCO2` (centres unmarked) [Compound 29, N-[3-(1,3-Benzodioxol-5-yl)-1-{N′-cyano-N-[3-(difluoromethoxy)phenyl]carbamimidoyl}-4,5-dihydro-1H-pyrazol-4-yl]-N-ethyl-2-hydroxyacetamide], the “BEI (SMYD2)” value at SMYD2 [1] turned out to be 10.7.

In the case of `CCCN(C(=O)CO)C1CN(/C(=N\C#N)Nc2cccc(OC(F)F)c2)N=C1c1ccc(Cl)cc1` (centres unmarked) [Compound 20], at SMYD2 [1], the “BEI (SMYD2)” value is on record as 11.2.
